Measurements from US12491170B2, “Stable treprostinil prodrugs” (United Therapeutics Corporation, priority 2020, dated 2025).

Legend:
[1] = Stability in cryopreserved hepatocytes, human; settings: for CLint, calculated (in parentheses) / Half-life, calculated (in parentheses) / CLint / Half-life: hepatocytes; for AUC / Mono AUC (treprostinil formed) / CLint / Half-life: human
[2] = Stability in cryopreserved hepatocytes, rat; settings: for CLint, calculated (in parentheses) / Half-life, calculated (in parentheses) / CLint / Half-life: hepatocytes; for AUC / Mono AUC (treprostinil formed) / CLint / Half-life: rat
[3] = Stability in cryopreserved hepatocytes, dog; settings: for AUC / Mono AUC (treprostinil formed) / CLint / Half-life: dog
[4] = Stability in human subcutaneous skin homogenate; settings: for AUC / Mono AUC (treprostinil formed): human
[5] = target: prostaglandin I2 (PGI2) receptor (IP) (Homo sapiens, UniProt P43119); assay: IP receptor cAMP agonist assay (CHO-K1 cells); type: cell-based; design: key to EC50 Fold Different from Treprostinil, IP Receptor: NC = too inactive to realistically calculate; settings: for Activity at the IP receptor compared to treprostinil: summary of findings; for IP Relative to Tre: Table 22, relative to treprostinil EC50 values, * partial agonists or ambiguous dose-response curves
Experimental: (§1) Cyclic AMP assay kit: Multiscreen™ TR-FRET cAMP 1.0 No Wash Assay Kit (Multispan, Inc.)
(§2) Cells were thawed from frozen cells and resuspended in assay buffer at desired concentrations. cAMP or Calcium assays were performed according to the manufacturer's protocol using Multiscreen™ TR-FRET cAMP 1.0 No Wash Assay Kit or Multiscreen™ Calcium 1.0 No Wash Kit.
(§3) Gas Cyclic AMP (cAMP) Assay: In agonist mode testing, cells were seeded in a 384-well plate at an appropriate density and then were treated with compounds and incubated at 37° C. for 20 minutes. The reaction was terminated by […] trFluor™ Eu-labeled cAMP and trFluor™ 650-labeled anti-cAMP antibody in lysis buffer. […] All testing wells contained 0.1% DMSO in the final concentrations.
(§4) Data in graphs are represented in Mean±SD. Dose-dependent responses were fitted with sigmoidal dose-response curves allowing variable slopes using GraphPad Prism version 6 (Graphpad Prism).
(§5) These studies used cell lines overexpressing either human IP, EP2 or DP1, or EP1 receptors, and following incubation with varying concentrations of compounds, cAMP levels were measured using Fluorescence Resonance Energy Transfer (FRET).

[6] = target: T1, prostaglandin D2 (PGD2) receptor 1 (DP1) (Homo sapiens, UniProt Q13258); assay: DP1 receptor cAMP agonist assay (HEK293T cells); type: cell-based; settings: for DP1 Relative to Tre: relative to treprostinil EC50 values, * partial agonists or ambiguous dose-response curves
T1 sequence (Q13258 1-359): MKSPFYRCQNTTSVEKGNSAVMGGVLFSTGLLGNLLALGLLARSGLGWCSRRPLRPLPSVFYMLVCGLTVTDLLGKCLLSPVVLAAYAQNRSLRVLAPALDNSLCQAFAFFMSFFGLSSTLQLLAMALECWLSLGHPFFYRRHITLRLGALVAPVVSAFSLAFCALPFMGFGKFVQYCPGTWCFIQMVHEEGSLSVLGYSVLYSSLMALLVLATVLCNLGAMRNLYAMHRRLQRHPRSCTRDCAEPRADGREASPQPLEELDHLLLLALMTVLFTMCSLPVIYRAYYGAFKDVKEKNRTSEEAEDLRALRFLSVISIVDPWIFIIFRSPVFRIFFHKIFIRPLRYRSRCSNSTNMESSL
Experimental: as §1, §2, §3, §4, §5

[7] = Table 18, * partial agonists or odd dose-response curves

Sequence of prostaglandin I2 (PGI2) receptor (IP) (P43119 whole entry): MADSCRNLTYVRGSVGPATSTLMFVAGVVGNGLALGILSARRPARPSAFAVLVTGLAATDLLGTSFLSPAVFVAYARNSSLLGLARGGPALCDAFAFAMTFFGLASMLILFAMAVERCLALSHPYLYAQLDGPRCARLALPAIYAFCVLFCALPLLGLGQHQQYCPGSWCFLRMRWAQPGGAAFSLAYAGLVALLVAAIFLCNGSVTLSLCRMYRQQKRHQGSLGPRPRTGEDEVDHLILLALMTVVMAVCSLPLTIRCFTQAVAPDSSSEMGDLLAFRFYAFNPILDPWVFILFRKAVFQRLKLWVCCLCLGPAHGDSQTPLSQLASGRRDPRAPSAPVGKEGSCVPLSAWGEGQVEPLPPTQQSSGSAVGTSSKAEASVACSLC

CCCCCC(CCC1C(OC(=O)CC)CC2Cc3c(cccc3OCC(=O)O)CC21)OC(=O)CC (stereo not shown) [Prodrug LXX, treprostinil dipropionate]
Trep Concentration (μM) 0 min [1]: 0.00542 µM
Trep Concentration (μM) 15 min [1]: 0.638 µM
Trep Concentration (μM) 30 min [1]: 0.556 µM
Trep Concentration (μM) 60 min [1]: 0.482 µM
Trep Concentration (μM) 120 min [1]: 0.413 µM
Treprostinil Concentration 0 min [1]: 0.00542 µM
Treprostinil Concentration 120 min [1]: 0.413 µM
CLint, calculated (in parentheses) [1]: 0.185 mL/min/mg protein
Half-life, calculated (in parentheses) [1]: 2.50 min
AUC [1]: 56.2 µmol·min/L
Mono AUC (treprostinil formed) [1]: 56.2 µmol·min/L
CLint [1]: > 0.0308 mL/min/mg protein
Half-life [1]: < 15 min
Trep Concentration (μM) 0 min [2]: 0 µM
Trep Concentration (μM) 15 min [2]: 0.606 µM
Trep Concentration (μM) 30 min [2]: 0.579 µM
Trep Concentration (μM) 60 min [2]: 0.484 µM
Trep Concentration (μM) 120 min [2]: 0.405 µM
Treprostinil Concentration 0 min [2]: 0 µM
Treprostinil Concentration 120 min [2]: 0.405 µM
CLint, calculated (in parentheses) [2]: 0.116 mL/min/mg protein
Half-life, calculated (in parentheses) [2]: 3.97 min
AUC [2]: 56.05 µmol·min/L
Mono AUC (treprostinil formed) [2]: 56.1 µmol·min/L
CLint [2]: > 0.0308 mL/min/mg protein
Half-life [2]: < 15 min
Trep Concentration (μM) 0 min [3]: 0.0959 µM
Trep Concentration (μM) 30 min [3]: 0.597 µM
Trep Concentration (μM) 60 min [3]: 0.511 µM
Trep Concentration (μM) 120 min [3]: 0.445 µM
Treprostinil Concentration 15 min [3]: 0.736 µM
Treprostinil Concentration 120 min [3]: 0.445 µM
AUC [3]: 61.54 µmol·min/L
Mono AUC (treprostinil formed) [3]: 61.5 µmol·min/L
CLint ([3]; hepatocytes): >0.0308 mL/min/mg protein
Half-life ([3]; hepatocytes): <15 min
Trep Concentration 0 min [4]: 0 µM
Trep Concentration 30 min [4]: 0.0179 µM
Trep Concentration 60 min [4]: 0.0411 µM
Trep Concentration 120 min [4]: 0.0972 µM
Treprostinil Concentration 0 min [4]: 0 µM
Treprostinil Concentration 30 min [4]: 0.0179 µM
AUC [4]: 5.303 µmol·min/L
Mono AUC (treprostinil formed) [4]: 5.303 µmol·min/L
EC50 Fold Different from Treprostinil, IP Receptor [5, 7]: NC
Activity at the IP receptor compared to treprostinil [5]: inactive
EC50 Fold Different from Treprostinil, DP1 Receptor [6, 7]: 410x*
DP1 Relative to Tre ([6]; Table 22): 410x
DP1 Relative to Tre ([6]; Table 23): 410x
Activity at the DP1 receptor compared to treprostinil ([6]; summary of findings): several hundred-fold less active

CCCCCC(CCC1C(OC(=O)OC)CC2Cc3c(cccc3OCC(=O)O)CC21)OC(=O)OC (stereo not shown) [Prodrug LXXI, treprostinil dicarbonate]
CLint, calculated (in parentheses) [1]: 0.0516 mL/min/mg protein
Half-life, calculated (in parentheses) [1]: 8.96 min
AUC [1]: 26.57 µmol·min/L
Mono AUC (treprostinil formed) [1]: 26.6 µmol·min/L
CLint [1]: > 0.0308 mL/min/mg protein
Half-life [1]: < 15 min
CLint, calculated (in parentheses) [2]: 0.295 mL/min/mg protein
Half-life, calculated (in parentheses) [2]: 1.56 min
AUC [2]: 39.77 µmol·min/L
Mono AUC (treprostinil formed) [2]: 39.8 µmol·min/L
CLint [2]: > 0.0308 mL/min/mg protein
Half-life [2]: < 15 min
AUC [3]: 41.47 µmol·min/L
Mono AUC (treprostinil formed) [3]: 41.5 µmol·min/L
CLint ([3]; hepatocytes): > 0.0308 mL/min/mg protein
Half-life ([3]; hepatocytes): < 15 min
CLint, calculated (in parentheses) ([3]; hepatocytes): 0.187 mL/min/mg protein
Half-life, calculated (in parentheses) ([3]; hepatocytes): 2.47 min
AUC [4]: 0.3108 µmol·min/L
Mono AUC (treprostinil formed) [4]: 0.3108 µmol·min/L
Activity at the IP receptor compared to treprostinil [5]: inactive
DP1 Relative to Tre ([6]; Table 22): 2181x*
DP1 Relative to Tre ([6]; Table 23): 2181x*

CCCCCC(CCC1C(O)CC2Cc3c(cccc3OCC(=O)O)CC21)OP(=O)(O)O (stereo not shown) [Prodrug VI]
Treprostinil Concentration 0 min [1]: 0 µM
Treprostinil Concentration 120 min [1]: 0.540 µM
Mono AUC (treprostinil formed) [1]: 48.7 µmol·min/L
Treprostinil Concentration 0 min [2]: 0.128 µM
Treprostinil Concentration 120 min [2]: 0.53 µM
Mono AUC (treprostinil formed) [2]: 66.9 µmol·min/L
Treprostinil Concentration 15 min [3]: 0.581 µM
Treprostinil Concentration 120 min [3]: 0.548 µM
Mono AUC (treprostinil formed) [3]: 62.9 µmol·min/L
Treprostinil Concentration 0 min [4]: 0 µM
Treprostinil Concentration 30 min [4]: 0.6 µM
Mono AUC (treprostinil formed) [4]: 91.95 µmol·min/L
IP Relative to Tre [5]: 5x
IP Relative to Tre ([5]; listed as Prodrug VI repeat): 1.5x
DP1 Relative to Tre ([6]; Table 22): 2x
